Data on 1 compound can be found in EP0925070B1, “ANTIFUNGAL COMBINATION THERAPY” (MERCK & CO., INC., priority 1996, dated 1998).

The subject of series [1] is disseminated candidiasis, aspergillosis and cryptococcosis. Nature of the series: drug interaction and efficacy studies in vivo, overall statements. The settings on record: for adverse effects: at high, use or lower concentrations. How it is done:
(§1) Drug interaction and efficacy studies with Compound I combined with either AmB or FCZ against disseminated candidiasis, aspergillosis and cryptococcosis were performed.

The subject of series [2] is A. fumigatus. Nature of the series: broth microdilution antifungal susceptibility / drug combination testing in vitro (NCCLS protocol M27-T). Type of series: cell-based. From the text:
(§2) This has been shown using a broth microdilution technique which is the standard method for antifungal susceptibility testing proposed by the NCCLS (protocol M27-T). Sub-inhibitory concentrations of Compound I in combination with sub-inhibitory concentrations of AmB and sub-inhibitory concentrations of FCZ were employed. The minimal inhibitory concentrations (MICs) for AmB and Compound I were defined as the lowest drug concentration at which there was an absence of growth.
(§3) Additional drug combination testing in vitro was performed to evaluate combinations of Compound I with AmB and FCZ against clinical isolates. There was no antagonism evident between Compound I and AmB against C. albicans, A. fumigatus and C. neoformans. Fractional inhibitory indices (FIC) were approximately 0.50 or lower, indicative of additive or synergistic activity.

The subject of series [3] is C. neoformans. Described as above. Type of series: cell-based. The settings on record: for activity against strains of C. neoformans in vitro: sub-inhibitory concentrations.
Source text: as §2, §3

For series [4], the system named is C. albicans. Described as above. Type of series: cell-based.
Source text: as §2, §3

In series [5] the test system is A. fumigatus. Nature of the series: drug interaction and efficacy study, disseminated aspergillosis. The class given is in vivo. The settings on record: Compound I at 0.008 mg/kg combined with AmB at 0.12 mg/kg, versus the compounds administered alone. How it is done:
as §1

Series [6] deals with C. albicans. Nature of the series: drug interaction and efficacy study, disseminated candidiasis. Type of series: in vivo. The conditions noted are these: Compound I 0.03 mg/kg and lower plus 0.03 mg/kg and lower of AmB. How it is done: as §1
Series [7] concerns C. neoformans. Nature of the series: drug interaction and efficacy study, disseminated cryptococcosis. Type of series: in vivo. The settings on record: combinations of Compound I and FCZ at certain concentrations. How it is done:
as §1

The mark [8] stands for this setting: Compound I in combination with AmB.

As for `CCC(C)CC(C)CCCCCCCCC(=O)N[C@H]1C[C@@H](O)[C@@H](NCCN)NC(=O)[C@@H]2[C@@H](O)CCN2C(=O)[C@H]([C@H](O)CCN)NC(=O)[C@H]([C@H](O)[C@@H](O)c2ccc(O)cc2)NC(=O)[C@@H]2C[C@@H](O)CN2C(=O)[C@H]([C@@H](C)O)NC1=O` (stereo partly shown) [Compound I], the antagonism of efficacy result in series [1] (AmB combined with Compound I) and in series [1] (FCZ combined with Compound I) was “no antagonism of efficacy” throughout. Moreover, the adverse effects result in series [1] (Compound I combined with AmB) and in series [1] (Compound I combined with FCZ) was “no adverse effects” throughout. Besides, the activity in vitro entry with A. fumigatus [2] (setting [8]) and in the series on C. albicans [4] (setting [8]) was “enhanced activity” throughout. The “antagonism between Compound I and AmB” value is given as “no antagonism” in the series on A. fumigatus [2] (in vitro, clinical isolates); “no antagonism” with C. neoformans [3] (in vitro, clinical isolates, C. neoformans); “no antagonism” with C. albicans [4] (in vitro, clinical isolates). The “activity of fluconazole, CFU numbers” value in the series with C. neoformans [3] (Compound I combined with fluconazole 0.25, 0.50 and 1.0 µg/ml, organism not printed) was “significantly enhanced the activity of fluconazole”. Besides, the “activity against strains of C. neoformans in vitro” value with C. neoformans [3] (setting [8]) and in the series on C. neoformans [3] (Compound I in combination with FCZ) was “enhanced activity” throughout. Further, the “colony forming units (CFUs)” value with C. neoformans [3] (amphotericin B 0.0075, 0.015 and 0.03 µg/ml combined with Compound I 4, 8 and 16 µg/ml, organism not printed) is on record as “markedly reduced”. Also, the survival result in the series with A. fumigatus [5] is given as “Significant improvement in survival”. In addition, the “efficacy against C. albicans” value with C. albicans [6] is reported as “more efficacious than either agent administered alone”. Moreover, the “efficacy against C. neoformans” value in the series with C. neoformans [7] is “Beneficial effects on efficacy”.
